Experimental findings from paper PMC6429263, “Evolution and Antibacterial Evaluation of 8-Hydroxy-cycloberberine Derivatives as a Novel Family of Antibacterial Agents Against MRSA” (Molecules, 2019) are described below.

The test system of one data set is MSSE ATCC 12228. As to the kind of experiment: MIC, agar dilution, MSSE ATCC 12228. Particulars: Staphylococcus epidermidis, ATCC12228; MSSE ATCC 12228; read-out: MIC. The format is cell-based, S. epidermidis.
The subject of a further data set is MRSA 13-18. The data set can be described thus: MIC, agar dilution, MRSA 13-18. The data set is classed as cell-based. The note with it: Staphylococcus aureus; MRSA 13-18; read-out: MIC.
A further data set deals with VISA ATCC 700699. The data set can be described thus: MIC, agar dilution, VISA ATCC 700699. The note with it: Staphylococcus aureus; VISA ATCC 700699; read-out: MIC. The data set is classed as cell-based.
A further data set deals with S.s ATCC 15305. As to the kind of experiment: MIC, agar dilution, S.s ATCC 15305. The format is cell-based. The note with it: Staphylococcus saprophyticus, ATCC15305; S. saprophyticus ATCC 15305; read-out: MIC.
The subject of another data set is MRSA 16-34. The data set can be described thus: MIC, agar dilution, MRSA 16-34. The note with it: Staphylococcus aureus; MRSA 16-34; read-out: MIC. The data set is classed as cell-based.
Another data set relates to MSSE 16-5. The data set can be described thus: MIC, agar dilution, MSSE 16-5 (clinical isolate). The data set is classed as cell-based, S. epidermidis. The note with it: Staphylococcus epidermidis; MSSE 16-5, isolated from patients in China; read-out: MIC.
The next data set has as its system S.h ATCC 35982. The data set can be described thus: MIC, agar dilution, S.h ATCC 35982. The data set is classed as cell-based. Particulars: Staphylococcus hominis, ATCC35982; S. hominis ATCC 35982; read-out: MIC.
In another data set the test system is MRSA ATCC-B AA-1708. As to the kind of experiment: MIC, agar dilution, MRSA ATCC-BAA-1708 (mupA positive). The format is cell-based. The note with it: Staphylococcus aureus; MRSA ATCC-BAA-1708, mupA positive (mupirocin resistance); read-out: MIC.
The test system of the next data set is MRSA 13-23. The data set can be described thus: MIC, agar dilution, MRSA 13-23. The data set is classed as cell-based. The note with it: Staphylococcus aureus; MRSA 13-23; read-out: MIC.
In a further data set the test system is VISA ATCC 700698. As to the kind of experiment: MIC, agar dilution, VISA ATCC 700698. The data set is classed as cell-based. Particulars: Staphylococcus aureus; VISA ATCC 700698; read-out: MIC.
Another data set deals with MSSA 15. The data set can be described thus: MIC, agar dilution, MSSA 15 (clinical isolate). Particulars: Staphylococcus aureus; MSSA 15, isolated from patients in China; read-out: MIC. The data set is classed as cell-based, S. aureus.
The test system of a further data set is MRSA ATCC 43300. As to the kind of experiment: MIC, agar dilution, MRSA ATCC 43300. The data set is classed as cell-based. Particulars: Staphylococcus aureus; MRSA ATCC 43300; read-out: MIC.
The next data set has as its system MRSA ATCC -BAA-976. As to the kind of experiment: MIC, agar dilution, MRSA ATCC-BAA-976 (clindamycin-resistant). The format is cell-based. The note with it: Staphylococcus aureus; MRSA ATCC-BAA-976, clindamycin-resistant S. aureus; read-out: MIC.
The test system of the next data set is MRSE 16-5. As to the kind of experiment: MIC, agar dilution, MRSE 16-5. Particulars: Staphylococcus epidermidis; MRSE 16-5; read-out: MIC. The format is cell-based, S. epidermidis.
The test system of the next data set is MRSE 13-3. As to the kind of experiment: MIC, agar dilution, MRSE 13-3. The format is cell-based, S. epidermidis. Particulars: Staphylococcus epidermidis; MRSE 13-3; read-out: MIC.
A further data set concerns MSSA 16-1. As to the kind of experiment: MIC, agar dilution, MSSA 16-1 (clinical isolate). The data set is classed as cell-based, S. aureus. The note with it: Staphylococcus aureus; MSSA 16-1, isolated from patients in China; read-out: MIC.
In a further data set the test system is MSSA ATCC 29213. The data set can be described thus: MIC, agar dilution, MSSA ATCC 29213. The data set is classed as cell-based, S. aureus. The note with it: Staphylococcus aureus; MSSA ATCC 29213; read-out: MIC.

Values joined by “and” are separate entries in the source; they are usually repeats but may differ in a detail not shown here. Identical values can stand only once. Counter-ions that a name gives are not always drawn.

`COc1ccc2c(c[n+]3ccc4cc5c(c6c(Cc7ccccc7)cc2c3c46)OCO5)c1O` (as salt: chloride) [13a, 1,2-Methylenedioxy-8-hydroxy-9-methoxy-13-benzylcycloberberine chloride]: the melting point was 248 to 250 °C.

For `COc1ccc2c(c[n+]3ccc4cc5c(c6c(Cc7ccc(F)cc7)cc2c3c46)OCO5)c1O` (as salt: chloride) [13b, 1,2-Methylenedioxy-8-hydroxy-9-methoxy-13-p-fluorobenzylcycloberberine chloride], the melting point is 203 to 205 °C.

Compound `COc1ccc2c(c[n+]3ccc4cc5c(c6c(Cc7ccc(F)cc7F)cc2c3c46)OCO5)c1O` (as salt: chloride) [13c, 1,2-Methylenedioxy-8-hydroxy-9-methoxy-13-2′,4′-difluorobenzylcycloberberine chloride] had a melting point of 218 to 220 °C.

Compound `COc1ccc2c(c[n+]3ccc4cc5c(c6c(Cc7c(F)cccc7F)cc2c3c46)OCO5)c1O` (as salt: chloride) [13d, 1,2-Methylenedioxy-8-hydroxy-9-methoxy-13-2′,6′-difluorobenzylcycloberberine chloride] returned a melting point of 214 to 216 °C.

Consider `COc1ccc2c(c[n+]3ccc4cc5c(c6c(Cc7ccc(Cl)cc7)cc2c3c46)OCO5)c1O` (as salt: chloride) [13e, 1,2-Methylenedioxy-8-hydroxy-9-methoxy-13-p-chlorobenzylcycloberberine chloride], for which the melting point fell in the range of 199 to 201 °C.

`COc1ccc2c(c[n+]3ccc4cc5c(c6c(Cc7ccc(Br)cc7)cc2c3c46)OCO5)c1O` (as salt: chloride) [13f, 1,2-Methylenedioxy-8-hydroxy-9-methoxy-13-p-bromobenzylcycloberberine chloride] registered a melting point of 207 to 209 °C.

On to `COc1ccc2c(c[n+]3ccc4cc5c(c6c(Cc7ccccc7C)cc2c3c46)OCO5)c1O` (as salt: chloride) [13g, 1,2-Methylenedioxy-8-hydroxy-9-methoxy-13-o-methylbenzylcycloberberine chloride], for which the melting point fell in the range of 203 to 205 °C.

`COc1ccc2c(c[n+]3ccc4cc5c(c6c(Cc7cccc(C)c7)cc2c3c46)OCO5)c1O` (as salt: chloride) [13h, 1,2-Methylenedioxy-8-hydroxy-9-methoxy-13-m-methylbenzylcycloberberine chloride] registered a melting point of 203 to 205 °C.

The compound `COc1ccc2c(c[n+]3ccc4cc5c(c6c(Cc7ccc(C)cc7)cc2c3c46)OCO5)c1O` (as salt: chloride) [13i, 1,2-Methylenedioxy-8-hydroxy-9-methoxy-13-p-methylbenzylcycloberberine chloride] registered a melting point of 229 to 231 °C.

Compound `COc1ccc2c(c[n+]3ccc4cc5c(c6c(Cc7cc(C)cc(C)c7)cc2c3c46)OCO5)c1O` (as salt: chloride) [13j, 1,2-Methylenedioxy-8-hydroxy-9-methoxy-13-3′,5′-dimethylbenzylcycloberberine chloride] gave a melting point of 218 to 220 °C.

As for `COc1ccc2c(c[n+]3ccc4cc5c(c6c(Cc7ccc(C(C)(C)C)cc7)cc2c3c46)OCO5)c1O` (as salt: chloride) [13k, 1,2-Methylenedioxy-8-hydroxy-9-methoxy-13-p-tert-butylmethylbenzylcyclo berberine chloride], the melting point lay in the range of 212 to 214 °C.

Consider `COc1ccc2c(c[n+]3ccc4cc5c(c6c(Cc7ccc(OC(F)(F)F)cc7)cc2c3c46)OCO5)c1O` (as salt: chloride) [13l, 1,2-Methylenedioxy-8-hydroxy-9-methoxy-13-p-trifluoromethoxybenzylcyclo berberine chloride], for which the melting point lay within 185 to 187 °C.

Regarding `COc1ccc2c(c[n+]3ccc4cc5c(c6c(Cc7ccccc7C#N)cc2c3c46)OCO5)c1O` (as salt: chloride) [13m, 1,2-Methylenedioxy-8-hydroxy-9-methoxy-13-o-cyanbenzylcycloberberine chloride], the melting point was 209 to 211 °C.

Compound `COc1ccc2c(c[n+]3ccc4cc5c(c6c(Cc7cccc(C#N)c7)cc2c3c46)OCO5)c1O` (as salt: chloride) [13n, 1,2-Methylenedioxy-8-hydroxy-9-dimethoxy-13-m-cyanbenzylcycloberberine chloride] registered a melting point of 189 to 191 °C.

In turn, `COc1ccc2c(c[n+]3ccc4cc5c(c6c(Cc7ccc(C#N)cc7)cc2c3c46)OCO5)c1O` (as salt: chloride) [13o, 1,2-Methylenedioxy-8-hydroxy-9-dimethoxy-13-p-cyanbenzylcycloberberine chloride] registered a melting point of 197 to 199 °C.

With `COc1ccc2c(c[n+]3ccc4cc5c(c6c(Cc7ccccc7[N+](=O)[O-])cc2c3c46)OCO5)c1O` (as salt: chloride) [13p, 1,2-Methylenedioxy-8-hydroxy-9-methoxy-13-o-nitrobenzylcycloberberine chloride], the melting point lay within 199 to 201 °C.

`COc1ccc2c(c[n+]3ccc4cc5c(c6c(Cc7cccc([N+](=O)[O-])c7)cc2c3c46)OCO5)c1O` (as salt: chloride) [13q, 1,2-Methylenedioxy-8-hydroxy-9-methoxy-13-m-nitrobenzylcycloberberine chloride]: the melting point was in the range of 186 to 188 °C.

`COc1ccc2c(c[n+]3ccc4cc5c(c6c(Cc7ccc([N+](=O)[O-])cc7)cc2c3c46)OCO5)c1O` (as salt: chloride) [13r, 1,2-Methylenedioxy-8-hydroxy-9-methoxy-13-p-nitrobenzylcycloberberine chloride] returned a melting point of 186 to 188 °C.

For the compound `COc1ccc2c(c[n+]3ccc4cc5c(c6c(C(C)c7ccccc7)cc2c3c46)OCO5)c1O` (centres unmarked) (as salt: chloride) [13s, 1,2-Methylenedioxy-8-hydroxy-9-methoxy-13-1′-phenylethylcycloberberine chloride], the melting point was 213 to 215 °C.

Compound `COC(=O)C(c1ccccc1)c1cc2c3ccc(OC)c(O)c3c[n+]3ccc4cc5c(c1c4c23)OCO5` (centres unmarked) (as salt: chloride) [13t, 1,2-Methylenedioxy-8-hydroxy-9-methoxy-13-2′-methoxy-2′-oxo-1′-phenylethylcycloberberine chloride] returned a melting point of 173 to 175 °C.

On to `CCCc1cc2c3ccc(OC)c(O)c3c[n+]3ccc4cc5c(c1c4c23)OCO5` (as salt: chloride) [15b, 1,2-Methylenedioxy-8-hydroxy-9-methoxy-13-propylcycloberberine chloride], for which the melting point is 165 to 167 °C.

`CCCCc1cc2c3ccc(OC)c(O)c3c[n+]3ccc4cc5c(c1c4c23)OCO5` (as salt: chloride) [15c, 1,2-Methylenedioxy-8-hydroxy-9-methoxy-13-butylcycloberberine chloride]: the melting point lay in the range of 162 to 164 °C.

With `COc1ccc2c(c[n+]3c4c2ccc2c(OC)c(OC)cc(c24)CC3)c1O` (as salt: chloride) [compound 6, 1,2-Dimethoxy-8-hydroxy-9-methoxycycloberberine Chloride], the melting point is 176 to 178 °C and 180 to 182 °C.

Regarding `COc1ccc2c(c[n+]3c4c2ccc2c(O)c(O)cc(c24)CC3)c1O` (as salt: chloride) [compound 10, 1,2,8-Trihydroxy-9-methoxycycloberberine Chloride], the melting point lay in the range of 191 to 193 °C.

Take `COc1ccc2c(c[n+]3ccc4cc5c(c6c(Cc7ccc(F)cc7)cc2c3c46)OCO5)c1O` [13b, 1,2-Methylenedioxy-8-hydroxy-9-methoxy-13-p-fluorobenzylcycloberberine chloride]: the minimal inhibitory concentration (MIC) in the data set on MSSE ATCC 12228, with MRSA 13-18, with VISA ATCC 700699, with S.s ATCC 15305, in the data set with MRSA 16-34 and with MSSE 16-5 was above 64 µg/mL in each case. In addition, the MIC with S.h ATCC 35982, in the data set with MRSA ATCC-B AA-1708, in the data set with MRSA 13-23, in the data set with VISA ATCC 700698, in the data set on MSSA 15 and with MRSA ATCC 43300 was above 64 µg/mL in each case. Moreover, the minimal inhibitory concentration (MIC) with MRSA ATCC -BAA-976, in the data set with MRSE 16-5, in the data set with MRSE 13-3, in the data set with MSSA 16-1 and with MSSA ATCC 29213 was above 64 µg/mL throughout.
